Reference: US20220017491A1, “COMPOUND INHIBITING YAP-TEAD BINDING, AND PHARMACEUTICAL COMPOSITION FOR PREVENTING OR TREATING CANCER, COMPRISING COMPOUND AS ACTIVE INGREDIENT” (KOREA RESEARCH INSTITUTE OF CHEMICAL TECHNOLOGY, priority 2018, published 2022)

Columns and labels:
[1] = tested on: YAP-TEAD; test: Luciferase assay of YAP-TEAD binding inhibition (TEAD luciferase reporter 8XGTIIC in HEK293T cells); assay type: cell-based; details: 10 μM, 24 hours, luciferase normalized with β-galactosidase
Method: A Luciferase assay which allows an inhibition degree of YAP-TEAD, previously reported in Cancers 2018, 10(5), 140, was used to measure an in vitro binding inhibition rate of YAP-TEAD.
HEK293T cells were purchased from American Type Culture Collection and incubated in DMEM media containing 10% FBS, L-glutamine, and penicillin/streptomycin. The HEK293T cells were seeded in a 24 well plate at a density of 1×10^5, and coated with polyethyleneamine (10 μg/mL). These cells were transfected with 8XGTIIC-luciferase (Addgene reference 34615) which is TEAD luciferase reporter plasmid and control β-galactosidase plasmid CMV-β-Gal using a lipofectamine 2000 reagent (Life Technologies, Inc.) according to the manufacturer's manual. Thereafter, the compound of the present invention was treated at a concentration of 10 μM for 24 hours, the cells were lysed using a Reporter lysis buffer (Promega, France), luciferase activity was read with a Mithras LB940 plate reader, and then normalization was performed with β-galactosidase.

[2] = tested on: HT29 cells; test: Proliferation assay for HT29 colorectal cancer cells (CellTiter-Glo cell viability); assay type: cell-based; details: Homo sapiens, HT-29; HT29 colorectal cancer cell line, 72 hours, ATP detection
Method: HT-29 which is a commercially available colorectal cancer cell line was treated with trypsin-EDTA, incubated, and seeded in a 96 well plate. […] The treated cells were incubated for further 72 hours and cell viability was measured by an ATP detection method (CellTiter-Glo LuminescentCell Viability Assay, Promega).
In order to confirm the anticancer effect of the compounds according to the present invention, a proliferation assay for HT29 cells which are a colorectal cancer cell line was performed by the above method, and IC50 values as a result are listed in the following Table 4: […]

[3] = tested on: AOM/DSS-induced colorectal cancer; test: Anticancer activity in AOM/DSS orthotopic syngeneic mouse model; assay type: in vivo, B6 mouse; details: intraperitoneally for three weeks; intestinal tissue FACS; FIG. 3
Method: In order to measure an anticancer effect in the state of immunity existing in a large intestine, a conventionally known AOM/DSS model was used to measure anticancer activity (J. Vis. Exp. (67), e4100 10.3791/4100, Cell Death & Dis. 2018, 9, 153).
A B6 mouse was adapted to an animal room for one week and then azoxymethane (AOM) was injected intraperitoneally at 10 mg/kg. After one week, the B6 mouse was supplied with a 2.5% dextran sulfate sodium (DSS) solution for one week and alternatively supplied with fresh water for two weeks, which was repeated three time, thereby causing colorectal cancer. After colorectal cancer was caused, the YAP-TEAD inhibition compound 17 of the present invention was injected intraperitoneally at 50 mg/kg, five times a week, for three weeks. After the dosing period was over, an intestine tissue was surgically isolated and the number and size of cancer tissue in the intestine tissue were measured and quantitatively analyzed, and the results are illustrated in FIGS. 1 to 3.
In addition, in order to confirm a ratio of Treg cells which play an important role in immunosuppression in cancer tissues, FACS analysis was performed. […]

IC50 [2]: 6.91 µM
SMILES: COCCCN1C(=O)c2cccc3c(NC(=O)C4CCCCN4S(=O)(=O)c4cccs4)ccc1c23 (stereo not drawn) [Compound 17]
Inhibition(%) [1]: 78%
Treg cells in cancer tissue (FACS, CD4 and Fop3) [3]: Treg cell decrease was confirmed
